Numbers after ± are expanded uncertainties.
Key:
[1] = 298.15 K; 101 kPa; Liquid
[2] = mn = molality of the nth substance listed, in mol/kg; settings: 298.15 K, 101 kPa, Liquid

SMILES: c1ccccc1 [benzene]
- mass density [1]: 873.71 ± 0.78 kg/m3
- speed of sound [1]: 1298.2 ± 2.8 m/s

SMILES: c1ccccc1 [benzene] + CCCC[N+](CCCC)(CCCC)CCCC.[Br-]
- mass density ([2]; m2 = 0): 873.71 ± 0.78 kg/m3
- speed of sound ([2]; m2 = 0): 1298.2 ± 2.8 m/s

SMILES: CCCC[N+](CCCC)(CCCC)CCCC.[Br-] [tetrabutylammonium bromide] + c1ccccc1
- mass density ([2]; m1 = 0.0154): 874.64 ± 0.78 kg/m3
- speed of sound ([2]; m1 = 0.0154): 1298.6 ± 2.8 m/s
- mass density ([2]; m1 = 0.0485): 876.48 ± 0.78 kg/m3
- speed of sound ([2]; m1 = 0.0485): 1299.4 ± 2.8 m/s
- mass density ([2]; m1 = 0.0662): 877.4 ± 0.77 kg/m3
- speed of sound ([2]; m1 = 0.0662): 1300.6 ± 2.8 m/s
- mass density ([2]; m1 = 0.0827): 878.36 ± 0.77 kg/m3
- speed of sound ([2]; m1 = 0.0827): 1300.8 ± 2.8 m/s
- mass density ([2]; m1 = 0.1724): 883.19 ± 0.76 kg/m3
- speed of sound ([2]; m1 = 0.1724): 1301.4 ± 2.8 m/s
- mass density ([2]; m1 = 0.3622): 893.1 ± 0.74 kg/m3
- speed of sound ([2]; m1 = 0.3622): 1310.1 ± 2.8 m/s
- mass density ([2]; m1 = 0.5773): 903.19 ± 0.72 kg/m3
- speed of sound ([2]; m1 = 0.5773): 1316.4 ± 2.8 m/s
- mass density ([2]; m1 = 0.8062): 913.08 ± 0.7 kg/m3
- speed of sound ([2]; m1 = 0.8062): 1324.6 ± 2.9 m/s

SMILES: ClC(Cl)(Cl)Cl [tetrachloromethane]
- mass density [1]: 1584.35 ± 2.2 kg/m3
- speed of sound [1]: 921.7 ± 2.4 m/s

SMILES: ClC(Cl)(Cl)Cl [tetrachloromethane] + CCCC[N+](CCCC)(CCCC)CCCC.[Br-]
- mass density ([2]; m2 = 0): 1584.35 ± 2.2 kg/m3
- speed of sound ([2]; m2 = 0): 921.7 ± 2.4 m/s
- mass density ([2]; m2 = 0.0289): 1578.53 ± 2.2 kg/m3
- speed of sound ([2]; m2 = 0.0289): 926.4 ± 2.4 m/s
- mass density ([2]; m2 = 0.0459): 1575.17 ± 2.2 kg/m3
- speed of sound ([2]; m2 = 0.0459): 929.4 ± 2.4 m/s
- mass density ([2]; m2 = 0.0609): 1572.21 ± 2.2 kg/m3
- speed of sound ([2]; m2 = 0.0609): 931.7 ± 2.4 m/s
- mass density ([2]; m2 = 0.0759): 1569.3 ± 2.2 kg/m3
- speed of sound ([2]; m2 = 0.0759): 933.7 ± 2.4 m/s
- mass density ([2]; m2 = 0.1041): 1563.88 ± 2.2 kg/m3
- speed of sound ([2]; m2 = 0.1041): 939.5 ± 2.4 m/s
- mass density ([2]; m2 = 0.3475): 1520.79 ± 2 kg/m3
- speed of sound ([2]; m2 = 0.3475): 982 ± 2.4 m/s
- mass density ([2]; m2 = 0.5626): 1488.36 ± 1.9 kg/m3
- speed of sound ([2]; m2 = 0.5626): 1017.5 ± 2.5 m/s
- mass density ([2]; m2 = 0.8165): 1456.84 ± 1.8 kg/m3
- speed of sound ([2]; m2 = 0.8165): 1057.6 ± 2.5 m/s

Source: the NIST ThermoML archive (doi:10.1016/j.jct.2005.08.018)
